From patent publication US10570121B2, “Substituted dihydroisoquinolinone compounds” (priority 2014, dated 2020)
Where two headings read alike, the source gives them in different places.

Legend:
WT EZH2 = WT EZH2 (Homo sapiens (Human), UniProt Q15910); experiment: WT EZH2 nucleosome assay (10X SAM, high SAM conditions); type: biochemical; settings: 15 uM SAM, Ki app from competitive inhibition fit
Method: (§1) The genes for EZH2, EED, SUZ12, and RBBP4 proteins were cloned into pBacPAK9 vectors (Clontech). RBBP4 was FLAG tagged on the N-terminal end. The baculovirus expressions of these proteins were used to co-infect SF9 insect cells. Insect cell pellets were lysed in a buffer containing 25 mM Tris pH8.0, 300 mM NaCl, 0.5 mM TCEP, complete EDTA-free protease inhibitor (Roche), 0.1% NP-40. The supernatant from the lysate was incubated with FLAG® M2 antibody resin (Sigma). The resin was washed on the chromatography column and eluted with 0.2 mg/ml FLAG peptide. The elute was incubated with omnicleave nucleases (Epicentre Technologies) at 4° C. overnight, then concentrated and loaded onto a Superdex 200 (GE Healthcare) column. The Superdex 200 column was eluted with 25 mM Tris pH8.0, 150 mM NaCl, 0.5 mM TCEP. Fractions containing the PRC2 complex were pooled.
(§2) A. Compound preparation • 1.
(§3) B. Reagent preparation • 1. […] Dilute TCA to 20% in DI water
(§4) C. Enzyme reaction • 1. […] Some compounds were tested under high SAM conditions.
(§5) D. Data analysis • 1. IC50 values were determined by fitting the data to a 4-parameter IC50 equation using proprietary curve fitting software. • 2. For compounds tested under high SAM conditions, Ki^app values were obtained by fitting the dose response curve to a model for competitive inhibition using proprietary curve fitting software. Preparation of HeLa Oligonucleosomes: Reagents • Cell Pellet: 15 L HeLa S3 (Accelgen)+6 L HeLa S3 (in house) • Mnase (Worthington Biochemicals) Equipment • SW-28 Rotor • Dounce Homogenizer/B Pestle Buffers • Lysis: 20 mM Hepes pH 7.5, 0.25M Sucrose, 3 mM MgCl2, 0.5% Nonidet P-40, 0.5 mM TCEP, 1 Roche Protease Tablet • B: 20 mM Hepes pH7.5, 3 mM MgCl2, 0.5 mM EDTA, 0.5 mM TCEP, 1 Roche Protease Tablet • MSB: 20 mM Hepes pH7.5, 0.4 M NaCl, 1 mM EDTA, 5% v/v Glycerol, 0.5 mM TCEP, 0.2 mM PMSF • LSB: 20 mM Hepes pH7.5, 0.1M NaCl, 1 mM EDTA, 0.5 mM TCEP, 0.2 mM PMSF • NG: 20 mM Hepes pH7.5, 1 mM EDTA, 0.4 m NaCl, 0.2 mM PMSF, 0.5 mM TCEP • Storage: 20 mM Hepes pH7.5, 1 mM EDTA, 10% Glycerol, 0.2 mM PMSF, 0.5 mM TCEP Protocol

EZH2 Mutant Y641N = EZH2 Mutant Y641N (Homo sapiens (Human), UniProt Q15910, Y641N); experiment: EZH2 Mutant Y641N nucleosome assay; type: biochemical; settings: PRC2 4-protein complex 6 nM, 1.5 μM SAM, HeLa oligonucleosomes
Method: as §1, §2, §3, §4, §5

[1] = read-out: WT EZH2 Nucleosome assay (10X SAM) Ki
[2] = read-out: EZH2 Mutant Y641N Nucleosome assay IC50
[3] = WT EZH2 Nucleosome assay (10X SAM) Ki (μM)
[4] = EZH2 Mutant Y641N Nucleosome assay IC50 (μM)

Sequence of WT EZH2 (Q15910 whole entry, looked up): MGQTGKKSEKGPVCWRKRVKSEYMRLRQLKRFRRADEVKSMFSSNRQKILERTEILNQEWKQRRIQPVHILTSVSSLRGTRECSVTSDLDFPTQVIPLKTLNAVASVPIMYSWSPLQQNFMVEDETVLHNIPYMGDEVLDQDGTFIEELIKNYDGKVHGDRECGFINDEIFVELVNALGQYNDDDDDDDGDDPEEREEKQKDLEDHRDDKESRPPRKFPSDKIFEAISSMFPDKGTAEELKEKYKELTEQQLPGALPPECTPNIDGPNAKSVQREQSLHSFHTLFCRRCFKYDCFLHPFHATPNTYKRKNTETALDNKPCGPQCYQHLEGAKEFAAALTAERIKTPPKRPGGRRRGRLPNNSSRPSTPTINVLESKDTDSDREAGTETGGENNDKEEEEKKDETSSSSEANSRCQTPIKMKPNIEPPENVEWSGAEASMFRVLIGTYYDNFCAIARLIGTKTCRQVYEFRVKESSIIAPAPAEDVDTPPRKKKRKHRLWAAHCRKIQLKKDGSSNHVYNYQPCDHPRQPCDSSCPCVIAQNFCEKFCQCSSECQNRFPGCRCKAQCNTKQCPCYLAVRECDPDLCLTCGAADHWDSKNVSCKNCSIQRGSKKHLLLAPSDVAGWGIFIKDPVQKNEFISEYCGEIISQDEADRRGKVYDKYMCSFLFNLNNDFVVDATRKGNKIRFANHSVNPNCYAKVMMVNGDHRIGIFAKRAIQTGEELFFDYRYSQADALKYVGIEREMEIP
Sequence of WT EZH2 (O75530 whole entry partner, looked up): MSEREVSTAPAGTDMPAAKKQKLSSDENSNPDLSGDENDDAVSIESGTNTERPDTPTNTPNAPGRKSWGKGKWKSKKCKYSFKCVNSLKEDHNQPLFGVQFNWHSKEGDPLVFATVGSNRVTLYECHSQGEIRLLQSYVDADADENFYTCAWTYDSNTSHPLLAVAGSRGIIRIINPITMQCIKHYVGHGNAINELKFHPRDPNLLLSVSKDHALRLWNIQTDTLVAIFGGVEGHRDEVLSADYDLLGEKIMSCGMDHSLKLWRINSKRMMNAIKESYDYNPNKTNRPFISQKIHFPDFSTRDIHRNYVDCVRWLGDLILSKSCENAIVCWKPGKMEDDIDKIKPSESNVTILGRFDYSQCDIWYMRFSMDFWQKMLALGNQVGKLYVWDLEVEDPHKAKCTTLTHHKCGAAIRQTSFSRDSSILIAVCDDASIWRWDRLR
Sequence of WT EZH2 (Q15022 whole entry partner, looked up): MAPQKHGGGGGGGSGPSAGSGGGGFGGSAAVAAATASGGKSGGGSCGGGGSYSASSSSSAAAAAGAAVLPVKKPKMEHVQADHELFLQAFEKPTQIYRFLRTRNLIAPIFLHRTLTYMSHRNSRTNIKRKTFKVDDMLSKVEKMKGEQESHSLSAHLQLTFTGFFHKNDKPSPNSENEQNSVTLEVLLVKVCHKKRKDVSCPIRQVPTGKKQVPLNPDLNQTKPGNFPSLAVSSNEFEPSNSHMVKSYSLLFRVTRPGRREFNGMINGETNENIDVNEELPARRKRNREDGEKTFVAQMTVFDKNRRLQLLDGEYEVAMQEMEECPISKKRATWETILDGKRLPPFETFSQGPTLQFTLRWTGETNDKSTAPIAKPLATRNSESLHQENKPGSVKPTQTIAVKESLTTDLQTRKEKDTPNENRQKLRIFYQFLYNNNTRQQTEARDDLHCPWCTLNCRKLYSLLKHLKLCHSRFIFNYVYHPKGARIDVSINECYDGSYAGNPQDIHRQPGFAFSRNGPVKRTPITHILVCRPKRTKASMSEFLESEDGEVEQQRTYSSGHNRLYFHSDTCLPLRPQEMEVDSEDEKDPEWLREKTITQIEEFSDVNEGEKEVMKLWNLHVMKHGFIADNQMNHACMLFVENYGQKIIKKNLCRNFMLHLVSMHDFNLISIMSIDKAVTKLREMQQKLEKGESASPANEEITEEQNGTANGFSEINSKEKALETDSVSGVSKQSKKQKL
Sequence of WT EZH2 (Q09028 whole entry partner, looked up): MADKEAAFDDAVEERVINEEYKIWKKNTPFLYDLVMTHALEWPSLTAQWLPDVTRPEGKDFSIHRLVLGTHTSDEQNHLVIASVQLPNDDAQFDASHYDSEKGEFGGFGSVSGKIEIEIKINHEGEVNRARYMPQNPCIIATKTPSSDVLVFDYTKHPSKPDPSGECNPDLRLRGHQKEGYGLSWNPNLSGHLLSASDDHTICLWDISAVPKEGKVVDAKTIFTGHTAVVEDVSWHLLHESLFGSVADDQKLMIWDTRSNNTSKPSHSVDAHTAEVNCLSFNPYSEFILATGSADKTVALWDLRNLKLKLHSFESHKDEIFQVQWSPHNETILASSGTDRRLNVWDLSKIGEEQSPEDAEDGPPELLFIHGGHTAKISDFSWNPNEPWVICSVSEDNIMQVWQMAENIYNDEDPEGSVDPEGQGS
Sequence of EZH2 Mutant Y641N (Q15910 whole entry Y641N, looked up): as the sequence (Q15910 whole entry, looked up) above, with Y641N counted along it
Sequence of EZH2 Mutant Y641N (O75530 whole entry partner, looked up): as the sequence (O75530 whole entry partner, looked up) above
Sequence of EZH2 Mutant Y641N (Q15022 whole entry partner, looked up): as the sequence (Q15022 whole entry partner, looked up) above
Sequence of EZH2 Mutant Y641N (Q09028 whole entry partner, looked up): as the sequence (Q09028 whole entry partner, looked up) above

Compound | Ki (WT EZH2; [1]) | IC50 (EZH2 Mutant Y641N; [2]) | Ki (WT EZH2; [3]) | IC50 (EZH2 Mutant Y641N; [4])
COc1cc(C)[nH]c(=O)c1CN1CCc2c(C)cc([C@@H](OC)[C@@H]3CCOC3)c(Cl)c2C1=O (single isomer, unassigned) [Example 85, 8-chloro-2-[(4-methoxy-6-methyl-2-oxo-1,2-dihydropyridin-3-yl)methyl]-7-{(S*)-methoxy[(3R*)-tetrahydrofuran-3-yl]methyl}-5-methyl-3,4-dihydroisoquinolin-1(2H)-one] | 52 nM | 0.238 µM | – | –
COc1cc(C)[nH]c(=O)c1CN1CCc2c(Cl)cc(C(C)C3CN(C)C3)c(Cl)c2C1=O (single isomer, unassigned) [Example 87, 5,8-dichloro-2-[(4-methoxy-6-methyl-2-oxo-1,2-dihydropyridin-3-yl)methyl]-7-[1-(1-methylazetidin-3-yl)ethyl]-3,4-dihydroisoquinolin-1 (2H)-one] | 0.01 nM | 0.002 µM | – | –
COc1cc(C)[nH]c(=O)c1CN1CCc2c(Cl)cc(C(C)C3CN(C)C3)c(Cl)c2C1=O (single isomer, unassigned) [Example 88, 5,8-dichloro-2-[(4-methoxy-6-methyl-2-oxo-1,2-dihydropyridin-3-yl)methyl]-7-[1-(1-methylazetidin-3-yl)ethyl]-3,4-dihydroisoquinolin-1 (2H)-one] | 28 nM | 0.122 µM | – | –
Cc1cc(OC(F)F)c(CN2CCc3c(Cl)cc(C(CO)C4CCOC4)c(Cl)c3C2=O)c(=O)[nH]1 (single isomer, unassigned) [Example 92] | 1 nM | 0.009 µM | – | –
Cc1cc(OC(F)F)c(CN2CCc3c(Cl)cc(C(CO)C4CCOC4)c(Cl)c3C2=O)c(=O)[nH]1 (single isomer, unassigned) [Example 93] | 159 nM | 1.33 µM | – | –
Cc1cc(OC(F)F)c(CN2CCc3c(Cl)cc(C(CO)C4CCOC4)c(Cl)c3C2=O)c(=O)[nH]1 (single isomer, unassigned) [Example 94] | 323 nM | 4.87 µM | – | –
Cc1cc(OC(F)F)c(CN2CCc3c(Cl)cc(C(CO)C4CCOC4)c(Cl)c3C2=O)c(=O)[nH]1 (single isomer, unassigned) [Example 95] | 1 nM | 0.012 µM | – | –
Cc1cc(C)c(CN2CCc3ccc(C(CO)C4CCOC4)c(Cl)c3C2=O)c(=O)[nH]1 (single isomer, unassigned) [Example 96] | 204 nM | 2.99 µM | – | –
Cc1cc(C)c(CN2CCc3ccc(C(CO)C4CCOC4)c(Cl)c3C2=O)c(=O)[nH]1 (single isomer, unassigned) [Example 97] | 3 nM | 0.027 µM | – | –
Cc1cc(C)c(CN2CCc3ccc(C(CO)C4CCOC4)c(Cl)c3C2=O)c(=O)[nH]1 (single isomer, unassigned) [Example 98] | 1220 nM | 8.72 µM | – | –
Cc1cc(C)c(CN2CCc3ccc(C(CO)C4CCOC4)c(Cl)c3C2=O)c(=O)[nH]1 (single isomer, unassigned) [Example 99] | 3 nM | 0.017 µM | – | –
Cc1cc(C)c(CN2CCc3c(C)cc(C(CO)C4CCOCC4)c(Cl)c3C2=O)c(=O)[nH]1 (single isomer, unassigned) [Example 100] | 309 nM | 3.73 µM | – | –
Cc1cc(C)c(CN2CCc3c(C)cc(C(CO)C4CCOCC4)c(Cl)c3C2=O)c(=O)[nH]1 (single isomer, unassigned) [Example 101] | 0.3 nM | 0.007 µM | – | –
Cc1cc(C)c(CN2CCc3c(Cl)cc(C(CO)O[C@@H]4CCOC4)c(Cl)c3C2=O)c(=O)[nH]1 (single isomer, unassigned) [Example 103] | 52 nM | 0.32 µM | – | –
Cc1cc(C)c(CN2CCc3c(Cl)cc(C(CO)O[C@@H]4CCOC4)c(Cl)c3C2=O)c(=O)[nH]1 (single isomer, unassigned) [Example 104] | 673 nM | 7.77 µM | – | –
CCC(OC)c1cc(Cl)c2c(c1Cl)C(=O)N(Cc1c(OC)cc(C)[nH]c1=O)CC2 (single isomer, unassigned) [Example 107] | 1.9 nM | 0.018 µM | – | –
CCC(OC)c1cc(Cl)c2c(c1Cl)C(=O)N(Cc1c(OC)cc(C)[nH]c1=O)CC2 (single isomer, unassigned) [Example 108] | 1.7 nM | 0.016 µM | – | –
COC(c1cc(Cl)c2c(c1Cl)C(=O)N(Cc1c(C)cc(C)[nH]c1=O)CC2)C1CC[S+]([O-])CC1 (single isomer, unassigned) [Example 114] | 16 nM | 0.152 µM | – | –

Compound | Ki (WT EZH2; [1]) | IC50 (EZH2 Mutant Y641N; [2]) | Ki (WT EZH2; [3]) | IC50 (EZH2 Mutant Y641N; [4])
COC(c1cc(Cl)c2c(c1Cl)C(=O)N(Cc1c(C)cc(C)[nH]c1=O)CC2)C1CC[S+]([O-])CC1 (single isomer, unassigned) [Example 115] | 0.3 nM | 0.005 µM | – | –
COc1cc(C)[nH]c(=O)c1CN1CCc2c(Cl)cc(C(OC)C3CCN(C=O)CC3)c(Cl)c2C1=O (single isomer, unassigned) [Example 118] | 0.1 nM | 0.003 µM | – | –
COc1cc(C)[nH]c(=O)c1CN1CCc2c(Cl)cc(C(OC)C3CCN(C=O)CC3)c(Cl)c2C1=O (single isomer, unassigned) [Example 119] | 15 nM | 0.1 µM | – | –
COC(c1cc(Cl)c2c(c1Cl)C(=O)N(Cc1c(C)cc(C)[nH]c1=O)CC2)C1(F)CCN(C)CC1 (single isomer, unassigned) [Example 120] | 2 nM | 0.014 µM | – | –
COC(c1cc(Cl)c2c(c1Cl)C(=O)N(Cc1c(C)cc(C)[nH]c1=O)CC2)C1(F)CCN(C)CC1 (single isomer, unassigned) [Example 121] | 29 nM | 0.255 µM | – | –
COc1cc(C)[nH]c(=O)c1CN1CCc2c(Cl)cc(C(OC)C3CCN(C(C)=O)CC3)c(Cl)c2C1=O (single isomer, unassigned) [Example 122] | 73 nM | 0.236 µM | – | –
COc1cc(C)[nH]c(=O)c1CN1CCc2c(Cl)cc(C(OC)C3CCN(C(C)=O)CC3)c(Cl)c2C1=O (single isomer, unassigned) [Example 123] | 0.2 nM | 0.005 µM | – | –
COc1cc(C)[nH]c(=O)c1CN1CCc2c(Cl)cc(C(OC)C3CCOC3)c(Cl)c2C1=O (single isomer, unassigned) [Example 124] | – | – | 58 nM | 0.892 µM
COc1cc(C)[nH]c(=O)c1CN1CCc2c(Cl)cc(C(OC)C3CCOC3)c(Cl)c2C1=O (single isomer, unassigned) [Example 125] | – | – | 0.9 nM | 0.008 µM
COc1cc(C)[nH]c(=O)c1CN1CCc2c(Cl)cc(C(OC)C3CCOC3)c(Cl)c2C1=O (single isomer, unassigned) [Example 126] | – | – | 56 nM | 0.165 µM
COc1cc(C)[nH]c(=O)c1CN1CCc2c(Cl)cc(C(OC)C3CCOC3)c(Cl)c2C1=O (single isomer, unassigned) [Example 127] | – | – | 0.2 nM | 0.0022 µM
COC(c1cc(Cl)c2c(c1Cl)C(=O)N(Cc1c(C)cc(C)[nH]c1=O)CC2)C1CN(C(=O)CO)C1 (single isomer, unassigned) [Example 128] | 184 nM | 1.17 µM | – | –
COC(c1cc(Cl)c2c(c1Cl)C(=O)N(Cc1c(C)cc(C)[nH]c1=O)CC2)C1CN(C(=O)CO)C1 (single isomer, unassigned) [Example 129] | 0.8 nM | 0.008 µM | – | –
COc1cc(C)[nH]c(=O)c1CN1CCc2c(C)cc(C(OC)C3CCS(=O)(=O)CC3)c(Cl)c2C1=O (single isomer, unassigned) [Example 130] | 220 nM | 1.99 µM | – | –
COC(c1cc(C)c2c(c1Cl)C(=O)N(Cc1c(C)cc(C)[nH]c1=O)CC2)C1CCS(=O)(=O)CC1 (single isomer, unassigned) [Example 131] | 0.7 nM | 0.005 µM | – | –
COC(c1ccc2c(c1Cl)C(=O)N(Cc1c(C)cc(C)[nH]c1=O)CC2)C1CCOC1 (single isomer, unassigned) [Example 132] | 1 nM | 0.013 µM | – | –
COC(c1ccc2c(c1Cl)C(=O)N(Cc1c(C)cc(C)[nH]c1=O)CC2)C1CCOC1 (single isomer, unassigned) [Example 133] | 837 nM | 8.64 µM | – | –
